As usually defined, the IC50 is the concentration at which inhibition is half-maximal.

The record followed here is patent US20080269213A1, “8-Hydroxyquinoline compounds and methods thereof” (Wyeth, priority 2006, published 2008).

SMILES strings stand for the structures. Where “and” joins values, the source holds several entries; their conditions need not be identical. Equal entries are not always repeated. Where two headings read alike, the source gives them in different places.

One experiment concerns the target T1, Agg-1 (Homo sapiens, UniProt O75173).
T1 sequence (O75173 213-837): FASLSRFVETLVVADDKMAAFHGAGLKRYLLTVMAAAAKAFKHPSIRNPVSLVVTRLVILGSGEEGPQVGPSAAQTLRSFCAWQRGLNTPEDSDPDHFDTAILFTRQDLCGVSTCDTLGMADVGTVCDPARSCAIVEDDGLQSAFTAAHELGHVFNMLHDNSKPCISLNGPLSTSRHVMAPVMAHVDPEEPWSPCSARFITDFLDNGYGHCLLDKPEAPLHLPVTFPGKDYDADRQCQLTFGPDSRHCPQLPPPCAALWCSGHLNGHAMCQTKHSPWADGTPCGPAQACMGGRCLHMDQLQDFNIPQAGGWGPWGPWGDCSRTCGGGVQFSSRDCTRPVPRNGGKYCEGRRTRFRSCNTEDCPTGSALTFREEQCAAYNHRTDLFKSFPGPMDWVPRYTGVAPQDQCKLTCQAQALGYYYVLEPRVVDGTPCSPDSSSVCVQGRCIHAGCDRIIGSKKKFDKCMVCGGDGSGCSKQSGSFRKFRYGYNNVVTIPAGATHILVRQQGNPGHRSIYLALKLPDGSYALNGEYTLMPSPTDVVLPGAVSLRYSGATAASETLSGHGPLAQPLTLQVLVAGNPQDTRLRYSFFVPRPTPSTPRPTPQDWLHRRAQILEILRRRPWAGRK
The experiment in a line: Agg-1 FRET assay. It is filed as biochemical. The settings on record: for inhibition at 66.7 µM: % inhibition @ 66.7 μM. The source says: The Agg-1/Agg-2 FRET data for N-[(8-hydroxyquinolin-2-yl)(phenyl)methyl]-2-phenoxyacetamide and 2-{[(phenoxyacetyl)amino](phenyl)methyl}quinolin-8-yl phenoxyacetate is presented in Table 1.

The target of experiment [1] is T2, recombinant human Aggrecanase-2 Agg2-Phe628 (Homo sapiens, UniProt Q9UNA0).
T2 sequence (Q9UNA0 262-628 limits assumed): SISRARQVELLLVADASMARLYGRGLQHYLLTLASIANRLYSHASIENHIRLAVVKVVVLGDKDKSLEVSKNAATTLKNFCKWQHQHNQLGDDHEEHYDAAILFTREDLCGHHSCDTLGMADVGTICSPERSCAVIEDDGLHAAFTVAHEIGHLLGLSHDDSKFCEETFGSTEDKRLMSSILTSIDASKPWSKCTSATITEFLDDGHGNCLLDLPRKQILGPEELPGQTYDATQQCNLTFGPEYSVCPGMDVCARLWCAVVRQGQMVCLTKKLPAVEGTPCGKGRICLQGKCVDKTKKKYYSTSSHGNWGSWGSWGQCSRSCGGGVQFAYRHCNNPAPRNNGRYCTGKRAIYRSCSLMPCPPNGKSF
The experiment in a line: Aggrecanase 2 in vitro enzyme assay (Agg-2 FRET, quenched fluorescent peptide substrate). Also on record: purified recombinant human Aggrecanase-2 Agg2-Phe628 (MW=41,737); This is a truncated form of full-length human aggrecanase-2; made in house; host or cells: CHO cells. The format is biochemical. The method, boiled down: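 Kinetic fluorescence (λex 340, λem 420 nm) monitored over 40 min at 30 °C after adding 25 μM final Abz/Dnp brevican-based quenched peptide. Enzyme: recombinant truncated human Agg2-Phe628 from CHO, 0.5 μg/ml final, mixed with inhibitor first; buffer HEPES pH 7.5 with NaCl, CaCl2, CHAPS, glycerol; compounds in duplicate.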

The mark [2] stands for this setting: read-out: Agg-1 IC50 (μM) or % Inhibition.
Setting [3] is: read-out: Agg-2 IC50 (μM) or % Inhibition.
The mark [4] stands for this setting: read-out: Agg-2 FRET Median IC50.

For the compound `Cc1ccc(-c2cccc(C(Cc3cc(Cl)c4cccnc4c3O)NC(=O)COCc3ccccc3)c2)s1` (centres unmarked), the inhibition at 66.7 µM on Agg-1 (setting [2]) was determined as 48%. In experiment [1] (setting [3]), the inhibition at 22 µM is 56%.

Turning to `O=C(COc1ccccc1)NC(CCc1ccccc1)c1cc(Cl)c2cccnc2c1O` (centres unmarked) [N-[1-(5-chloro-8-hydroxyquinolin-7-yl)-3-phenylpropyl]-2-phenoxyacetamide], at Agg-1 (@ 22000 nM, read-out: Agg1 %), the inhibition at 22 µM is 56%. Besides, the IC50 in experiment [1] (read-out: Agg2 IC50) is 1.7 µM.

Turning to `CC(C)(Oc1ccc(Cl)cc1)C(=O)NC(Cc1cc(Cl)c2cccnc2c1O)c1cccc(CN2CCCC2)c1` (centres unmarked), on Agg-1 (setting [2]), the inhibition at 66.7 µM was found to be 50%. Also, the inhibition at 22 µM in experiment [1] (setting [3]) was 49%.

In the case of `O=C(CNCc1ccc(-c2ccccc2)cc1)NC(c1ccccc1)c1cc(Cl)c2cccnc2c1O` (centres unmarked) [Example 230, N^2-(biphenyl-4-ylmethyl)-N-[(5-chloro-8-hydroxyquinolin-7-yl)(phenyl)methyl]glycinamide], the IC50 on Agg-1 (read-out: Agg1 IC50) is over 20 µM; in experiment [1] (read-out: Agg2 IC50), 1.29 µM.

Consider `COc1ccc(C(NC(=O)COc2ccccc2)c2cc(Cl)c3cccnc3c2O)cc1OC` (centres unmarked) [N-[(5-chloro-8-hydroxyquinolin-7-yl)(3,4-dimethoxyphenyl)methyl]-2-phenoxyacetamide], for which the IC50 on Agg-1 (read-out: Agg1 IC50) was over 1.5 µM; in experiment [1] (setting [4]), 1.06 µM and 5.19 µM.

In the case of `O=C(COc1ccccc1)NC(c1ccccc1)c1cc(Cl)c2ccccc2c1O` (centres unmarked) [N-[(4-chloro-1-hydroxy-2-naphthyl)(phenyl)methyl]-2-phenoxyacetamide], the half-maximal inhibitory concentration (IC50) at Agg-1 (read-out: Agg1 IC50) is over 22 µM; in experiment [1] (read-out: Agg2 IC50) it was over 67 µM. Moreover, the “Agg-2 FRET Median PCT INHIB” value in experiment [1] (concentration not given) is 31%.

As for `O=C(COc1ccccc1)NC(c1cc(Cl)c2cccnc2c1O)c1cccc2ncccc12` (centres unmarked) [N-[(5-chloro-8-hydroxyquinolin-7-yl)(quinolin-5-yl)methyl]-2-phenoxyacetamide], the inhibition at 22 µM at Agg-1 (@ 22000 nM, read-out: Agg1 %) was found to be 46%. Besides, the IC50 in experiment [1] (read-out: Agg2 IC50) is 3.5 µM; in experiment [1] (setting [4]) it was 3.52 µM.

With `O=C(COc1ccccc1)NC(c1ccccc1N1CCOCC1)c1cc(Cl)c2cccnc2c1O` (centres unmarked) [N-[(5-chloro-8-hydroxyquinolin-7-yl)(2-morpholin-4-ylphenyl)methyl]-2-phenoxyacetamide], the inhibition at 22 µM at Agg-1 (@ 22000 nM, read-out: Agg1 %) turned out to be 59%. The inhibition at […] in experiment [1] (@ 1200 nM) came to 43%.

As to `O=C(COc1ccc(C2CCCC2)cc1)NC(c1ccccc1Cl)c1cc(Cl)c2cccnc2c1O` (centres unmarked) [N-[(5-chloro-8-hydroxyquinolin-7-yl)(2-chlorophenyl)methyl]-2-(4-cyclopentylphenoxy)acetamide], the IC50 is over 20 µM on Agg-1 (read-out: Agg1 IC50) and 2.4 µM in experiment [1] (read-out: Agg2 IC50).

Regarding `O=C(Cc1ccccc1)NC(/C=C/c1ccccc1)c1cc(Cl)c2cccnc2c1O` (centres unmarked) [N-[(2E)-1-(5-chloro-8-hydroxyquinolin-7-yl)-3-phenylprop-2-en-1-yl]-2-phenylacetamide], at Agg-1 (@ 20000 nM, read-out: Agg1 %), the inhibition at 20 µM turned out to be 45%. In addition, the IC50 in experiment [1] (read-out: Agg2 IC50) and in experiment [1] (setting [4]) was 50 µM throughout.

In the case of `O=C(COc1ccccc1)NC(c1ccccc1)c1cc(Br)c2cccnc2c1O` (centres unmarked) [N-[(5-bromo-8-hydroxyquinolin-7-yl)(phenyl)methyl]-2-phenoxyacetamide], the inhibition at 22.2 µM on Agg-1 (@ 22200 nM, read-out: Agg1 %) amounted to 64%. Besides, the IC50 in experiment [1] (read-out: Agg2 IC50) and in experiment [1] (setting [4]) was 2.48 µM throughout.

With `Cc1ccc(-c2cccc(C(Cc3cc(Cl)c4cccnc4c3O)NC(=O)COc3ccc(C(C)(C)C)cc3)c2)s1` (centres unmarked), on Agg-1 (setting [2]), the inhibition at 22 µM was determined as 46%. Besides, the inhibition at 200 µM in experiment [1] (setting [3]) worked out at 56%.

Turning to `O=C(COc1ccc(-c2ccccc2)cc1)NC(c1ccccc1Cl)c1cc(Cl)c2cccnc2c1O` (centres unmarked) [2-(biphenyl-4-yloxy)-N-[(5-chloro-8-hydroxyquinolin-7-yl)(2-chlorophenyl)methyl]acetamide], the IC50 at Agg-1 (read-out: Agg1 IC50) was 66 to 200 µM; in experiment [1] (read-out: Agg2 IC50), 3.3 µM.

In the case of `O=C(COc1ccccc1)NC(c1ccc2c(c1)OCO2)c1cc(Cl)c2cccnc2c1O` (centres unmarked) [N-[1,3-benzodioxol-5-yl(5-chloro-8-hydroxyquinolin-7-yl)methyl]-2-phenoxyacetamide], the IC50 on Agg-1 (read-out: Agg1 IC50) was over 22 µM; in experiment [1] (read-out: Agg2 IC50) it was 1.56 µM; in experiment [1] (setting [4]), 1.56 µM.

With `Cc1ccc(C(NC(=O)COc2ccccc2)c2cc(Cl)c3cccnc3c2O)o1` (centres unmarked) [N-[(5-chloro-8-hydroxyquinolin-7-yl)(5-methyl-2-furyl)methyl]-2-phenoxyacetamide], the IC50 at Agg-1 (read-out: Agg1 IC50) was over 22 µM; in experiment [1] (read-out: Agg2 IC50), 2.32 µM; in experiment [1] (setting [4]) it was 2.33 µM.

For the compound `Nc1cccc(C(NC(=O)COc2ccccc2)c2cc(Cl)c3cccnc3c2O)c1` (centres unmarked) [Example 202, N-[(3-aminophenyl)(5-chloro-8-hydroxyquinolin-7-yl)methyl]-2-phenoxyacetamide], the IC50 is over 2 µM at Agg-1 (read-out: Agg1 IC50); 4.59 µM in experiment [1] (read-out: Agg2 IC50); 4.59 µM and 4.36 µM in experiment [1] (setting [4]).

As to `COc1cccc(C(NC(=O)COc2ccccc2)c2cc(Cl)c3cccnc3c2O)c1` (centres unmarked) [Example 126, N-[(5-chloro-8-hydroxyquinolin-7-yl)(3-methoxyphenyl)methyl]-2-phenoxyacetamide], the inhibition at 22 µM at Agg-1 (@ 22000 nM, read-out: Agg1 %) is 44%. Further, in experiment [1] (read-out: Agg2 IC50), the IC50 worked out at 1.8 µM.

On to `O=C(CNCc1ccc2c(c1)OCO2)NC(c1ccccc1Cl)c1cc(Cl)c2cccnc2c1O` (centres unmarked) [Example 232, N2-(1,3-benzodioxol-5-ylmethyl)-N-[(5-chloro-8-hydroxyquinolin-7-yl)(2-chlorophenyl)methyl]glycinamide], for which the IC50 at Agg-1 (read-out: Agg1 IC50) is 13.7 µM; in experiment [1] (read-out: Agg2 IC50) it was 1.8 µM.

`O=C(O)Cc1cccc(C(NC(=O)COc2ccccc2)c2cc(Cl)c3cccnc3c2O)c1` (centres unmarked) [Example 208, (3-{(5-chloro-8-hydroxyquinolin-7-yl)[(phenoxyacetyl)amino]methyl}phenyl)acetic acid]: the inhibition at […] on Agg-1 (@ 2500 nM, read-out: Agg1 %) came out at 37%. Further, the IC50 in experiment [1] (read-out: Agg2 IC50) and in experiment [1] (setting [4]) was 4.48 µM throughout.

As for `O=C(COc1ccccc1)NC(c1ccccc1)c1ccc2cccc(O)c2n1` (centres unmarked) [Example 276, N-[(8-hydroxyquinolin-2-yl)(phenyl)methyl]-2-phenoxyacetamide], at Agg-1 (read-out: FRET IC50 Agg-1), the IC50 is 15 µM. Moreover, in experiment [1] (@ 200 (μM), read-out: Agg-2 FRET % (printed in FRET IC50 column)), the inhibition at 200 µM worked out at 32%.

On to `CCOC(=O)Cc1cccc(C(NC(=O)COc2ccccc2)c2cc(Cl)c3cccnc3c2O)c1` (centres unmarked) [Example 127, ethyl(3-{(5-chloro-8-hydroxyquinolin-7-yl)[(phenoxyacetyl)amino]methyl}phenyl)acetate], for which, on Agg-1 (@ 22000 nM, read-out: Agg1 %), the inhibition at 22 µM stood at 41%. Besides, the inhibition at 33 µM in experiment [1] (@ 33000 nM) is 50%. Moreover, in experiment [1] (setting [4]), the IC50 was 1.45 µM.

Take `Cc1ccc(C(NC(=O)COc2ccccc2)c2cc(Cl)c3cccnc3c2O)cc1C` (centres unmarked) [N-[(5-chloro-8-hydroxyquinolin-7-yl)(3,4-dimethylphenyl)methyl]-2-phenoxyacetamide]: the IC50 at Agg-1 (read-out: Agg1 IC50) was 66 to 200 µM; in experiment [1] (read-out: Agg2 IC50) it was 1.5 µM.

In the case of `CCCc1ccc(OCC(=O)NC(c2ccccc2Cl)c2cc(Cl)c3cccnc3c2O)cc1` (centres unmarked) [N-[(5-chloro-8-hydroxyquinolin-7-yl)(2-chlorophenyl)methyl]-2-(4-propylphenoxy)acetamide], the inhibition at […] on Agg-1 (@ 1100 nM, read-out: Agg1 %) turned out to be 44%; in experiment [1] (@ 2500 nM) it was 47%.

`O=C(CCl)Nc1cccc(C(NC(=O)COc2ccccc2)c2cc(Cl)c3cccnc3c2O)c1` (centres unmarked) [Example 205, 2-chloro-N-(3-{(5-chloro-8-hydroxyquinolin-7-yl)[(phenoxyacetyl)amino]methyl}phenyl)acetamide]: the IC50 at Agg-1 (read-out: Agg1 IC50) was about 20 µM; in experiment [1] (read-out: Agg2 IC50) it was 1.47 µM.

On to `O=C(COc1ccccc1)NC(c1cc2n(n1)CSC2)c1cc(Cl)c2cccnc2c1O` (centres unmarked) [Example 174, N-[(5-chloro-8-hydroxyquinolin-7-yl)(4H-pyrazolo[1,5-c][1,3]thiazol-2-yl)methyl]-2-phenoxyacetamide], for which the “Agg1 %” value at Agg-1 (@ 7000-22000 nM) was 42% @ 7000-22000. In addition, the inhibition at […] in experiment [1] (@ 1900 nM) came out at 40%.
